Data from publication PMC10539501 (Nature Communications, 2023).
Where two headings read alike, the source gives them in different places. Starred links: 1 amine or outer side, 2 acyl side, 3 side chain; linkers in the order of their positions; H or OH if unused. Non-standard residues stand in square brackets, D forms with d. Residues, ends and D or L forms follow the SMILES beside them. X1 = CC(C)C[C@H](NC(=S)[C@H](Cc1ccc(O)cc1)N[*:1])C(=O)[*:2]; X9 = O=C([C@@H]1CCCN1C(=S)[C@H](Cc1ccccc1)N[*:1])[*:2]

Tests used:
[1] = PAMPA passive permeability; assay type: in vitro ADME;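 further: passive permeability across an artificial membrane in 96-well pre-coated PAMPA plates, which lack transporters and efflux systems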
Protocol: Encouraged by this, the passive permeability of the analogs was evaluated using an artificial membrane (PAMPA), which measures permeability of compounds in the absence of transporters and efflux systems[32].
96-well BD Corning® pre-coated PAMPA plates were used following the supplier’s protocol, details in Supplementary Information.

[2] = assay type: physicochemical
SSTR2 = molecular target: T1, SSTR2 (Homo sapiens, UniProt P30874); experiment: GloSensor assay, inhibition of forskolin-induced cAMP production; assay type: cell-based
T1 construct: expressed in transfected cells; host or cells: HEK-293T (CRL-3216)
T1 sequence (P30874 whole entry): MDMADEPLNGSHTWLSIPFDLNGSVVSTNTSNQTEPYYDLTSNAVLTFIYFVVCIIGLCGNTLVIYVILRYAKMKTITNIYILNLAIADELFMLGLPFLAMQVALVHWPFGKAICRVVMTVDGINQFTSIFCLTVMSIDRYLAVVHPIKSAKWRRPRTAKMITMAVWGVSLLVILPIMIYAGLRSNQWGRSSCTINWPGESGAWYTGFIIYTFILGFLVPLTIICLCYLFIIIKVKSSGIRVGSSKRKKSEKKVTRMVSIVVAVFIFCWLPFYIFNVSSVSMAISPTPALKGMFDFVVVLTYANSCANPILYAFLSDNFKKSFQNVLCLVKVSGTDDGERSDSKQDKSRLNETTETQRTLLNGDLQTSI

SSTR5 = molecular target: T2, SSTR5 (Homo sapiens, UniProt P35346); experiment: as above; assay type: cell-based
T2 construct: expressed in transfected cells; host or cells: HEK-293T (CRL-3216)
T2 sequence (P35346 whole entry): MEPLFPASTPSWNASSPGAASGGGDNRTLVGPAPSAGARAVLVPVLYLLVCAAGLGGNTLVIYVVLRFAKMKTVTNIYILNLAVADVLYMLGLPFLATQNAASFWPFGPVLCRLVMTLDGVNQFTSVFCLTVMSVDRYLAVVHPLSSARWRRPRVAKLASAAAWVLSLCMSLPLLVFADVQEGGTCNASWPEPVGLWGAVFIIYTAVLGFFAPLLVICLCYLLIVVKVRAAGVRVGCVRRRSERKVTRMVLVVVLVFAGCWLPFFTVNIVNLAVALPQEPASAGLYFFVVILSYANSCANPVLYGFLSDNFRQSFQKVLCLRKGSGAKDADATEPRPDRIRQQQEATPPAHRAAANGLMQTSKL
Protocol: HEK-293T cells (CRL-3216 from ATCC, procured from NCCS, Pune) were co-transfected with human somatostatin receptor subtypes 2 & 5, plasmid cDNA, and cAMP biosensor (pGloSensorTM-22F plasmid; Promega Corp.) using PEImax. Ligand incubation was followed by the addition and incubation of forskolin (FSK) to the plate. Dose-dependent inhibition of forskolin-induced cAMP production by the peptide ligands was measured using a luminescence plate reader. An elaborate description of the assay setup has been provided in Supplementary Information.

in vivo [3] = settings: male, rat, sc; for half-life: Sprague-Dawley
Protocol: Subsequently, we selected 13a, 13b, 13d, and 13e for assessing their plasma exposure post single dose subcutaneous injection into male Sprague Dawley rats.
(§1) All animals were housed individually in the animal facility at Anthem Biosciences Pvt. Ltd and were acclimatized for 3 days. All animals were fasted overnight before dosing, whereas access to water was provided ad libitum. Peptides were administered orally and via s.c. route and blood samples were collected at different time points through a jugular vein catheter.

physchem = settings: pH 7.4
in vitro [4] = settings: both, human, plasma
in vitro [5] = settings: both, human, plasma; remark: listed apart in the source
Protocol: Blood was freshly drawn from three healthy adults, two male and one person of 26–28 year old. […] The plasma was separated by centrifugation. […] For checking metabolic stability, the required volume of plasma was pre-incubated at 37 °C prior to the experiment for 2 min, followed by spiking with the peptides. At different time points, plasma was aliquoted. The supernatant was separated and used for RP-HPLC quantification. Rapid Equilibrium Dialysis (RED) assay was performed to assess the plasma protein binding of the peptides following the supplier’s protocol.

SIF = settings: up to 72 hours
[6] = tested on: growth hormone (GH) release; experiment: In vivo inhibition of growth hormone release (sandwich ELISA); design: species or system rats
Protocol: In vivo inhibition of GH. Finally, we estimated the in vivo efficacy of 13 and the thioamidated analogs 13b, 13d, and 13e in suppressing the release of growth hormone (GH) post subcutaneous injection at 250 μg/kg dosage (Fig. 7e). 13a was also included as a negative control to assess its effect on GH release. The rats were bled from their orbital sinus, and the plasma GH levels were evaluated through sandwich ELISA. […] This correlates well with the high plasma concentration of 13 at the initial time points and a rapid drop within 2 h of s.c. administration (Fig. 7c). […] In contrast, the inhibitory effect lasts longer in 13b, 13d, and 13e showing a significant reduction in plasma GH levels within 24–48 h (Fig. 7h). […] The rapid drop in plasma concentration of 13 is responsible for its least in vivo efficacy.
Animal housing and acclimatization were done at Central Animal Facility, IISc Bangalore, as mentioned in the previous section, following protocols from the IEAC and CPCSEA. […] Samples were processed as discussed in Supplementary Information, and sandwich ELISA was performed to measure the growth hormone level in blood plasma. For acute toxicity, after peptide injection (s.c.), blood samples were collected on the 14th day for liver and kidney function tests.

in vitro [7] = settings: pig, simulated intestinal fluid
Protocol: We next assessed the stability of the macrocyclic peptides in Simulated Intestinal Fluid (SIF)[42], comprising of pancreatin, which is a mixture of several proteases produced by the exocrine cells of the porcine pancreas.
(§2) A stability assessment of the peptides was done in simulated gastric (SGF) and intestinal (SIF) fluids and human liver microsomes. The degradation kinetics of the aliquoted samples at desired time points were analyzed through RP-HPLC.

[8] = HDX of amide protons by NMR in DMSO-d6:D2O (8:2)
Protocol: (§3) As hydrogen bonding and solvation of NH groups play an important role in the permeability of macrocycles, we determined the solvent accessibility of individual amide protons in 10 and 10a–10f by hydrogen-deuterium exchange (HDX) through NMR spectroscopy (Figs. 2a–c).
(§4) Spectra were recorded on a Bruker AV 500 MHz spectrometer at 25 °C.

[9] = assay type: physicochemical; remark: listed apart in the source
in vitro [10] = assay type: in vitro ADME, human
Protocol: (§5) The Caco-2 cell (HTB-37^TM from ATCC, procured from NCCS, Pune) monolayer was washed and pre-incubated at 37 °C and 5% CO2 for 30 min with HBSS-HEPES buffer containing 1% DMSO prior to experimentation. The assay was performed 21 days post-seeding of cells. TEER values were measured before starting and after the completion of the assay. Acceptor and donor well concentrations of the peptides and controls were assessed through LC-MS/MS.

Caco-2 cells = experiment: in vitro; assay type: in vitro ADME, human; settings: Caco-2
Protocol: as §5

pepsin [11] = molecular target: T3, pepsin (Sus scrofa, UniProt P00791); settings: pH 1.2
T3 sequence (P00791 60-385): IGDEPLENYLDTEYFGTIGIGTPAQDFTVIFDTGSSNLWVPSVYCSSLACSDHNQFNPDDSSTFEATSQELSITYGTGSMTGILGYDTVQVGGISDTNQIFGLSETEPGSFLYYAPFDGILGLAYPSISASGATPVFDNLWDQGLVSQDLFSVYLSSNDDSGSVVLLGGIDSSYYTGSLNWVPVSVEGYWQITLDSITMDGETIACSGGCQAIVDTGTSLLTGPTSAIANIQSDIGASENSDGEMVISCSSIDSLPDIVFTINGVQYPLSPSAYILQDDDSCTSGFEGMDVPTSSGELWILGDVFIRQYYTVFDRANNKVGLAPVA
Protocol: as §2

[12] = rat, in vivo, po, 10 mg/kg
Protocol: as §1

in vivo [13] = settings: male, Wistar, rat
Protocol: as §1

pepsin [14] = molecular target: T3, pepsin; experiment: in vitro; settings: simulated gastric fluid, pH 1.2
Protocol: as §2

in vitro [15] = settings: human, microsomes
Protocol: as §2

[16] = Retention in hydrophobic C18 column by HPLC; settings: Supplementary Fig 3d, logD7.4 vs tR
[17] = Octanol-water distribution coefficient (logD7.4); settings: octanol-water, pH 7.4; value plotted against PAMPA (Supplementary Fig 12)
[18] = HDX of amide protons by NMR in CDCl3:CD3OD (8:2)
Protocol: as §3, §4

[19] = 20% CD3OD in CDCl3, % remaining after 24 hours
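Wherever Papp A-B avg (second block) is given: Caco-2 monolayers used 21 days after seeding in HBSS-HEPES buffer with 1% DMSO, donor and acceptor levels quantified by LC-MS/MS, TEER checked before and after.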
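Wherever Papp A-B set 1 (second block) is given: Caco-2 monolayers used 21 days after seeding in HBSS-HEPES buffer with 1% DMSO, donor and acceptor levels quantified by LC-MS/MS, TEER checked before and after.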
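Wherever Papp A-B set 2 (second block) is given: Caco-2 monolayers used 21 days after seeding in HBSS-HEPES buffer with 1% DMSO, donor and acceptor levels quantified by LC-MS/MS, TEER checked before and after.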
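Wherever Papp B-A avg (second block) is given: Caco-2 monolayers used 21 days after seeding in HBSS-HEPES buffer with 1% DMSO, donor and acceptor levels quantified by LC-MS/MS, TEER checked before and after.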

Protocol for human liver microsomes: as §2

Molecule: C[C@@H](O)[C@@H]1NC(=O)[C@H](CCCCN)NC(=O)[C@@H](Cc2c[nH]c3ccccc23)NC(=O)[C@H](Cc2ccccc2)NC(=O)[C@@H]2CCCN2C(=S)[C@H](Cc2ccccc2)NC1=O [13d] (cyclo(F[dW]KT[X9]))
- Papp ([1]; Pe): 2.29 ×10⁻⁶ cm/s
- logD heptane ethylene glycol [2]: -0.94
- IC50 (SSTR2; read-out: IC50 sstr2): 20.3 ± 11.9 nM
- IC50 (SSTR5): > 10000 nM
- t1/2 in human blood plasma: 42 h
- level at 0.5 h (in vivo [3]; Sprague Dawley): 92 ng/mL
- level at 1 h (in vivo [3]; Sprague Dawley): 77 ng/mL
- half-life (in vivo [3]): 1.1 ± 0.4 h
- logD (physchem): -0.84
- fraction unbound (in vitro [4]): 0.11
- half-life (in vitro [5]): 42 h

Molecule: cyclo(-D-Trp^1-Lys-Thr-Phe-Pro-Phe^6-)
- cleaved bond (SIF): Lys2-Thr3, major, 1 hour

Molecule: cyclo(D-Trp^1-Lys-Thr-Phe-Pro-Phe^6)
- not cleaved (SIF): prevented the degradation of the macrocycle over 72 h

Molecule: C[C@@H](O)[C@@H]1NC(=O)[C@H](CCCCN)NC(=O)[C@@H](Cc2c[nH]c3ccccc23)NC(=O)[C@H](Cc2ccccc2)NC(=O)[C@@H]2CCCN2C(=O)[C@H](Cc2ccccc2)NC1=O [compound 13, cyclo(-D-Trp^1-Lys-Thr-Phe-Pro-Phe^6-)] (cyclo(PF[dW]KTF))
- Papp ([1]; Pe): 1.34 ×10⁻⁶ cm/s
- logD heptane ethylene glycol [2]: -1.43
- IC50 (SSTR2): 16.6 ± 4.2 nM
- IC50 (SSTR5): 105 ± 24.2 nM
- AUC 0_24 ([6]; growth hormone AUC 0-24 h, mean of n = 3): 504 ng·h/mL
- AUC 0_48 ([6]; growth hormone AUC 0-48 h, mean of n = 3): 1371 ng·h/mL
- AUC 24_48 ([6]; growth hormone AUC 24-48 h, mean of n = 3): 817 ng·h/mL
- inhibition of unstimulated GH release ([6]; rats, 250 μg/kg s.c., plasma GH by sandwich ELISA over 48 h): significant inhibition
- t1/2 in human blood plasma: 15 ± 0.9 h
- level at 0.5 h (in vivo [3]; Sprague Dawley): 195 ng/mL
- level at 1 h (in vivo [3]; Sprague Dawley): 128 ng/mL
- level at 2 h (in vivo [3]; Sprague Dawley, 250 ug/kg): 8 ng/mL
- half-life (in vivo [3]): 0.3 ± 0.05 h
- logD (physchem): -1.23
- fraction unbound (in vitro [4]): 0.24
- half-life (in vitro [7]): 1.8 h
- half-life (in vitro [5]): 14 h
- t1/2 for all HNs (HDX) ([8]; HDX experiment by NMR, solvent not stated at the place (Supplementary Fig. 18)): < 5 min
- Half-lives (min), amide proton D-Trp1 ([8]; Supplementary Fig 18b, HDX of amide proton of D-Trp1, solvent not given): >5 min
- Half-lives (min), amide proton Lys2 ([8]; Supplementary Fig 18b, HDX of amide proton of Lys2, solvent not given): >5 min
- Half-lives (min), amide proton Phe4 ([8]; Supplementary Fig 18b, HDX of amide proton of Phe4, solvent not given): >5 min
- Half-lives (min), amide proton Phe6 ([8]; Supplementary Fig 18b, HDX of amide proton of Phe6, solvent not given): >5 min
- Half-lives (min), amide proton Thr3 ([8]; Supplementary Fig 18b, HDX of amide proton of Thr3, solvent not given): >5 min

Molecule: CC(C)C[C@@H]1NC(=O)[C@@H](CC(C)C)NC(=O)[C@H](CC(C)C)NC(=S)[C@H](Cc2ccc(O)cc2)NC(=O)[C@H]2CCCN2C(=O)[C@H](CC(C)C)NC1=O [10e] (cyclo(LL[dP][X1][dL]))
- % solubility [9]: 14%
- Pe Avg [1]: 7.4 ×10⁻⁶ cm/s
- Pe set1 [1]: 7.43 ×10⁻⁶ cm/s
- Pe set2 [1]: 6.36 ×10⁻⁶ cm/s
- Pe set3 [1]: 8.29 ×10⁻⁶ cm/s
- Papp ([1]; Pe Avg): 7.4 ×10⁻⁶ cm/s
- logD heptane ethylene glycol [2]: 0.94
- Papp A→B (in vitro [10]; Caco-2, Papp A-B + Elacridar avg): 6.1 ×10⁻⁶ cm/s
- Papp A→B (in vitro [10]; Caco-2, Papp A-B avg): 2.01 ×10⁻⁶ cm/s
- Papp B→A (in vitro [10]; Caco-2, Papp B-A + Elacridar avg): 9.5 ×10⁻⁶ cm/s
- Papp B→A (in vitro [10]; Caco-2, Papp B-A avg): 37.6 ×10⁻⁶ cm/s
- Papp A-B avg (second block) (Caco-2 cells): 2.01 ×10⁻⁶ cm/s
- Papp A-B set 1 (second block) (Caco-2 cells): 2.06 ×10⁻⁶ cm/s
- Papp A-B set 2 (second block) (Caco-2 cells): 1.96 ×10⁻⁶ cm/s
- Papp B-A avg (second block) (Caco-2 cells): 37.6 ×10⁻⁶ cm/s
- Papp B-A set 1 (second block) (Caco-2 cells): 38.6 ×10⁻⁶ cm/s
- Papp B-A set 2 (second block) (Caco-2 cells): 36.7 ×10⁻⁶ cm/s
- Protein binding set1 (plasma proteins): 100%
- Protein binding set2 (plasma proteins): 95%
- Protein binding set3 (plasma proteins): 100%
- Half lives (SGF) set1 (pepsin [11]): 259 min
- Half lives (human liver microsomes): 24.8
- AUClast p.o [12]: 359.5 ng·h/mL
- time over which the peptide is detectable in plasma [12]: ≥ 8 h
- AUC(0-t) (in vivo [13]; iv): 2280 ng·h/mL
- Cmax (in vivo [13]; iv): 2660 ng/mL
- MRT (in vivo [13]; iv): 1.5 h
- Vd (in vivo [13]; iv): 0.7 L/kg
- clearance (in vivo [13]; iv): 7.5 mL/min/kg
- bioavailability (in vivo [13]; po): 1.6%
- AUC(0-t) (in vivo [13]; po, 10 mg/kg): 360 ng·h/mL
- Cmax (in vivo [13]; po, 10 mg/kg): 47.2 ng/mL
- MRT (in vivo [13]; po, 10 mg/kg): 5.9 h
- level at 3 h (in vivo [13]; po, 10 mg/kg): 32.6 ng/mL
- logD (physchem): 1.45
- fraction unbound (in vitro [4]): 0.01
- half-life (pepsin [14]): 3.83 h
- remaining at 5 min (pepsin [14]): 82%
- remaining at 10 min (pepsin [14]): 78%
- remaining at 20 min (pepsin [14]): 73%
- remaining at 0.5 h (pepsin [14]): 66%
- remaining at 1 h (pepsin [14]): 61%
- remaining at 2 h (pepsin [14]): 58%
- remaining at 4 h (pepsin [14]): 49%
- remaining at 8 h (pepsin [14]): 41%
- remaining at 12 h (pepsin [14]): 35%
- remaining at 24 h (pepsin [14]): 24%
- half-life (in vitro [7]): 4.02 h
- remaining at 10 min (in vitro [7]): 76.6%
- remaining at 0.5 h (in vitro [7]): 68.3%
- remaining at 1 h (in vitro [7]): 62.8%
- remaining at 2 h (in vitro [7]): 58.3%
- remaining at 4 h (in vitro [7]): 49.7%
- remaining at 8 h (in vitro [7]): 40.9%
- remaining at 12 h (in vitro [7]): 27.5%
- remaining at 24 h (in vitro [7]): 19.9%
- microsomal CLint (in vitro [15]): 56.5 µL/min/mg
- remaining at 5 min (in vitro [15]): 97%
- remaining at 10 min (in vitro [15]): 70%
- remaining at 20 min (in vitro [15]): 55%
- remaining at 0.5 h (in vitro [15]): 47%
- remaining at 0.75 h (in vitro [15]): 37%
- remaining at 1 h (in vitro [15]): 27%
- half-life (in vitro [5]): 26 h
- remaining at 1 h (in vitro [5]): 90%
- remaining at 3 h (in vitro [5]): 82%
- remaining at 5 h (in vitro [5]): 84%
- remaining at 7 h (in vitro [5]): 76%
- remaining at 9 h (in vitro [5]): 67%
- remaining at 12 h (in vitro [5]): 61%
- remaining at 24 h (in vitro [5]): 50%
- remaining at 36 h (in vitro [5]): 43%
- remaining at 48 h (in vitro [5]): 32%
- remaining at 60 h (in vitro [5]): 25%
- remaining at 72 h (in vitro [5]): 12%
- tR [16]: 13.5 min
- logD7.4 [17]: 1.65
- Half-life of D-Leu1 amide proton (HDX) ([8]; HDX by NMR, 20% D2O in DMSO-d6): 0.767 h
- Half-life of Leu2 amide proton (HDX) ([8]; HDX by NMR, 20% D2O in DMSO-d6): 0.6 h
- Half-life of Leu3 amide proton (HDX) ([8]; HDX by NMR, 20% D2O in DMSO-d6): 3.18 h
- Half-life of Leu6 amide proton (HDX) ([8]; HDX by NMR, 20% D2O in DMSO-d6): 10.8 h
- Half-life of Tyr5 amide proton (HDX) ([8]; HDX by NMR, 20% D2O in DMSO-d6): 0.583 h
- Half-life of D-Leu1 amide proton (HDX) ([18]; 20% CD3OD in CDCl3): 0.167 h
- Half-life of Leu2 amide proton (HDX) ([18]; 20% CD3OD in CDCl3): 2 min
- Half-life of Leu3 amide proton (HDX) ([18]; 20% CD3OD in CDCl3): > 24 h
- Half-life of Leu6 amide proton (HDX) ([18]; 20% CD3OD in CDCl3): > 24 h
- Half-life of Tyr5 amide proton (HDX) ([18]; 20% CD3OD in CDCl3): 3.13 h
- % intact NH, Leu3 [18, 19]: 66%
- % intact NH, Leu6 [18, 19]: 70%

Molecule: cyclo(D-Trp^1-Lys'-Thr-Phe-Pro-Phe^6)
- not cleaved (SIF): prevented the degradation of the macrocycle over 72 h
